According to publication PMC6270271, “Accidental Interaction between PDZ Domains and Diclofenac Revealed by NMR-Assisted Virtual Screening” (Molecules, 2013):

What was measured:
[1] = target: T1, Harmonin (Harmonin_PDZ2, PDZ8) (Homo sapiens, UniProt Q9Y6N9); experiment: 1H-15N SOFAST-HMQC NMR titration; assay type: binding
T1 construct: gene USH1C; PDZ2 domain, 100 residues
T1 sequence (Q9Y6N9 201-300 limits assumed): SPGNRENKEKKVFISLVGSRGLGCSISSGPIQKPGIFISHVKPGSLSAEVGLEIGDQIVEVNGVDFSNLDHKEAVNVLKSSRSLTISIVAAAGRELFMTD
Source text: 1H-15N SOFAST-HMQC NMR titration on Harmonin (Harmonin_PDZ2, PDZ8) | PDZ8|−|+|−|−|−|−|−|++|−|−

[2] = target: T2, InaDL (InaDL_PDZ6, PDZ13) (Homo sapiens, UniProt Q8NI35); experiment: 1H-15N SOFAST-HMQC NMR titration; assay type: binding
T2 construct: gene PATJ; PDZ6 domain, 113 residues
T2 sequence (Q8NI35 1058-1170 limits assumed): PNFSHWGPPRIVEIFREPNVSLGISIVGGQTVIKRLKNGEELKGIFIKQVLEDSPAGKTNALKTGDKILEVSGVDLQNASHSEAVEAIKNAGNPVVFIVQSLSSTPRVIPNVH

mouse ZO-1 (mZO1-PDZ1) [3] = target: T3, mouse ZO-1 (mZO1-PDZ1) (Mus musculus, UniProt P39447); experiment: 1H-15N SOFAST-HMQC NMR titration; V92E-R96Q mutant abolishes binding
T3 construct: gene Tjp1
T3 sequence (P39447 18-110): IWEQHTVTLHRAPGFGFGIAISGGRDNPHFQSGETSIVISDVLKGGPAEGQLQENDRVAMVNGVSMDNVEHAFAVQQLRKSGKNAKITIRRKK

RHPN2 (RHPN2_PDZ, PDZ7) = target: T4, RHPN2 (RHPN2_PDZ, PDZ7) (Homo sapiens, UniProt Q8IUC4); experiment: 1H-15N SOFAST-HMQC NMR titration; assay type: binding
T4 construct: PDZ domain, 99 residues
T4 sequence (Q8IUC4 515-593 limits assumed): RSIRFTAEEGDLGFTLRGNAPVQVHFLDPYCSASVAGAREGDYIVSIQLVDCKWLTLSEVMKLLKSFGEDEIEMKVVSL
Source text: 1H-15N SOFAST-HMQC NMR titration on RHPN2 (RHPN2_PDZ, PDZ7) | PDZ7|−|++|++|−|−|−|−|+|−|−

mouse ZO-1 (mZO1-PDZ1) [4] = target: T3, mouse ZO-1 (mZO1-PDZ1); experiment: 1H-15N SOFAST-HMQC NMR titration; assay type: binding

1H-15N SOFAST-HMQC NMR titration (RHPN2 (RHPN2_PDZ, PDZ7))	Kd (mouse ZO-1 (mZO1-PDZ1) [4]) [µM]	Structure (SMILES)	1H-15N SOFAST-HMQC NMR titration [1]	1H-15N SOFAST-HMQC NMR titration [2]	Kd (mouse ZO-1 (mZO1-PDZ1) [3]) [µM]
PDZ7|−|++|++|−|−|−|−|+|−|−	750	O=C(O)c1ccccc1Nc1cccc(C(F)(F)F)c1 [FLF, 2-[[3-(trifluoro-methyl)phenyl]amino] benzoic acid]	PDZ8|−|+|−|−|−|−|−|++|−|−	PDZ13|n. e.|++|+|−|−|−|−|++|−|−	
PDZ7|−|++|++|−|−|−|−|+|−|−		CC(=O)O[C@H]1C[C@@]2(C)[C@@H](C[C@@H](O)[C@H]3[C@@]4(C)CC[C@@H](O)[C@@H](C)[C@@H]4CC[C@@]32C)/C1=C(\CCC=C(C)C)C(=O)O [FUA, fusidic acid]			

Structure (SMILES)	1H-15N SOFAST-HMQC NMR titration (RHPN2 (RHPN2_PDZ, PDZ7))	Kd (mouse ZO-1 (mZO1-PDZ1) [4]) [µM]	1H-15N SOFAST-HMQC NMR titration [1]	1H-15N SOFAST-HMQC NMR titration [2]	Kd (mouse ZO-1 (mZO1-PDZ1) [3]) [µM]
O=C(O)Cc1ccccc1Nc1c(Cl)cccc1Cl [DIF, 2-[(2,6-dichlorophenyl)amino] benzene-acetic acid]	PDZ7|−|++|++|−|−|−|−|+|−|−		PDZ8|−|+|−|−|−|−|−|++|−|−	PDZ13|n. e.|++|+|−|−|−|−|++|−|−	1400
